Measurements: patent US20230203081A1, “LINCOSAMIDE ANTIBIOTICS AND USES THEREOF” (President and Fellows of Harvard College, priority 2020, published 2023)
In brackets after ≈: the same amount, converted by molar mass. Like-named read-outs stand apart in the source and are kept apart here.

Columns and labels:
Type in all cases: cell-based
E. coli ΔTolC = test: microbe, parasite or virus in culture; conditions: Escherichia coli
Description: (§1) Minimum inhibitory concentrations (MICs) were determined by broth microdilution method or agar dilution method following the Clinical and Laboratory Standards Institute guidelines. Standard bacterial strains were obtained from American Type Culture Collection (ATCC). Other bacterial strains were obtained from hospitals and commercial sources, so noted in Table 11. […] Specialized procedures were employed for streptococcal and anaerobic strains. All other bacterial strains were sub-cultured on blood agar plates (tryptic soy agar with 5% sheep blood, Hardy Diagnostics) and incubated overnight at 35° C. […] Suspensions were further diluted to obtain a final inoculum of 5×10^5 CFU/mL for broth microdilution experiments.

E. faecium Clinical VRE = test: MIC (broth microdilution or agar dilution, CLSI); conditions: Enterococcus faecium; E. faecium Clinical VRE; read-out: MIC
Description: (§2) Minimum inhibitory concentrations (MICs) were determined by broth microdilution method or agar dilution method following the Clinical and Laboratory Standards Institute guidelines. Standard bacterial strains were obtained from American Type Culture Collection (ATCC). Other bacterial strains were obtained from hospitals and commercial sources, so noted in Table 11. Before the start of the MIC experiment, standard and test compound stock solutions were prepared in dimethyl sulfoxide (DMSO, Aldrich D2650) at a stock concentration of 5,120 μg/mL. The compound concentration range typically employed for each experiment was 128-0.06 μg/mL (2.5% final DMSO concentration). Clindamycin was used as a comparator in all experiments and each experiment was performed in triplicate. Specialized procedures were employed for streptococcal and anaerobic strains. All other bacterial strains were sub-cultured on blood agar plates (tryptic soy agar with 5% sheep blood, Hardy Diagnostics) and incubated overnight at 35° C. Organisms were suspended in cation-adjusted Mueller-Hinton broth (CaMHB, BD 212322) and optical density was adjusted to 0.5 McFarland standard. Suspensions were further diluted to obtain a final inoculum of 5×10^5 CFU/mL for broth microdilution experiments.

S. aureus cErmA = test: MIC (broth microdilution or agar dilution, CLSI); conditions: Staphylococcus aureus; S. aureus cErmA; read-out: MIC
Description: as §2

E. coli ATCC 25922 = test: MIC (broth microdilution or agar dilution, CLSI); conditions: Escherichia coli, ATCC25922, read-out: MIC
Description: as §1

E. coli LptD = test: MIC (broth microdilution or agar dilution, CLSI); conditions: Escherichia coli, read-out: MIC
Description: as §1

E. faecalis ATCC 29212 = test: MIC (broth microdilution or agar dilution, CLSI); conditions: Enterococcus faecalis, read-out: MIC
Description: as §1

K. oxytoca Clinical = test: MIC (broth microdilution or agar dilution, CLSI); conditions: Klebsiella oxytoca, read-out: MIC
Description: as §1

S. aureus ATCC 29213 = test: MIC (broth microdilution or agar dilution, CLSI); conditions: Staphylococcus aureus, read-out: MIC
Description: as §1

S. pneumoniae ATCC 49619 = test: MIC (broth microdilution or agar dilution, CLSI); conditions: Streptococcus pneumoniae, read-out: MIC
Description: as §1

S. pyogenes ATCC 19615 = test: MIC (broth microdilution or agar dilution, CLSI); conditions: Streptococcus pyogenes, read-out: MIC
Description: as §1

[1] = test system: broad panel of different clinical isolates; test: microbe, parasite or virus in culture; conditions: Enterococcus faecium, VRE, E. faecium HAV#326; Clinical
Description: as §1

[2] = test system: S. aureus ATCC BAA-1707 (MRSA); test: MIC (broth microdilution or agar dilution, CLSI); conditions: Staphylococcus aureus; S. aureus HAV#016, ATCC BAA-1707; MRSA; read-out: MIC
Description: as §1

S. aureus BAA 977 iErmA = test: microbe, parasite or virus in culture; conditions: Staphylococcus aureus, BAA-977 / MRSA
Description: as §1

[3] = ATCC29212, E. faecalis ATCC 29212
[4] = ATCC29213, S. aureus ATCC 29213
[5] = ATCC49619, S. pneumoniae ATCC 49619
[6] = ATCC19615, S. pyogenes ATCC 19615
[7] = ATCC29212, E. faecalis HAV#005, ATCC 29212
[8] = ATCC29213, S. aureus HAV#001, ATCC 29213, MP-549

SMILES	MIC (E. coli ΔTolC; E. coli ΔTolC) [µg/mL]	MIC (E. faecium Clinical VRE) [µg/mL]	MIC (S. aureus cErmA) [µg/mL]	MIC (E. coli ATCC 25922; E. coli ATCC 25922) [µg/mL]	MIC (E. coli LptD; E. coli LptD) [µg/mL]	MIC (E. faecalis ATCC 29212; [3]) [µg/mL]	MIC (K. oxytoca Clinical; K. oxytoca Clinical) [µg/mL]	MIC (S. aureus ATCC 29213; [4]) [µg/mL]	MIC (S. pneumoniae ATCC 49619; [5]) [µg/mL]	MIC (S. pyogenes ATCC 19615; [6]) [µg/mL]	also measured
CS[C@H]1O[C@H]([C@H](NC(=O)[C@H]2NC[C@@H]3C[C@H](CC(C)C)CCO[C@H]32)[C@H](C)Sc2ccc(CN3CCNCC3)cc2)[C@H](O)[C@H](O)[C@H]1O [FSA-09-05-076, (4S,5aS,8S,8aR)-4-Isobutyl-N-((1S,2S)-2-((4-(piperazin-1-ylmethyl)phenyl)thio)-1-((2R,3R,4S,5R,6R)-3,4,5-trihydroxy-6-(methylthio)tetrahydro-2H-pyran-2-yl)propyl)octahydro-2H-oxepino[2,3-c]pyrrole-8-carboxamide]	8 (≈ 12 µM)	16 (≈ 24 µM)	128 (≈ 192 µM)	128 (≈ 192 µM)	16 (≈ 24 µM)	4 (≈ 6 µM)	16 (≈ 24 µM)	8 (≈ 12 µM)	1 (≈ 1.5 µM)	0.25 (≈ 0.375 µM)	–
CS[C@H]1O[C@H]([C@H](NC(=O)[C@H]2NC[C@@H]3C[C@H](CC(C)C)CCO[C@H]32)[C@H](C)Sc2ccc(CN3CCCCC3)cc2)[C@H](O)[C@H](O)[C@H]1O [FSA-09-05-077, (4S,5aS,8S,8aR)-4-Isobutyl-N-((1S,2S)-2-((4-(piperidin-1-ylmethyl)phenyl)thio)-1-((2R,3R,4S,5R,6R)-3,4,5-trihydroxy-6-(methylthio)tetrahydro-2H-pyran-2-yl)propyl)octahydro-2H-oxepino[2,3-c]pyrrole-8-carboxamide]	4 (≈ 6.01 µM)	1 (≈ 1.5 µM)	4 (≈ 6.01 µM)	16 (≈ 24 µM)	1 (≈ 1.5 µM)	1 (≈ 1.5 µM)	1 (≈ 1.5 µM)	2 (≈ 3 µM)	0.25 (≈ 0.375 µM)	0.125 (≈ 0.188 µM)	–
CS[C@H]1O[C@H]([C@H](NC(=O)[C@H]2NC[C@@H]3C[C@H](CC(C)C)CCO[C@H]32)[C@H](C)Sc2ccc(CN3CCCC3)cc2)[C@H](O)[C@H](O)[C@H]1O [FSA-09-05-078, (4S,5aS,8S,8aR)-4-Isobutyl-N-((1S,2S)-2-((4-(pyrrolidin-1-ylmethyl)phenyl)thio)-1-((2R,3R,4S,5R,6R)-3,4,5-trihydroxy-6-(methylthio)tetrahydro-2H-pyran-2-yl)propyl)octahydro-2H-oxepino[2,3-c]pyrrole-8-carboxamide]	4 (≈ 6.14 µM)	1 (≈ 1.53 µM)	4 (≈ 6.14 µM)	16 (≈ 24.5 µM)	2 (≈ 3.07 µM)	1 (≈ 1.53 µM)	2 (≈ 3.07 µM)	2 (≈ 3.07 µM)	0.25 (≈ 0.383 µM)	0.125 (≈ 0.192 µM)	–
CNCc1ccc(S[C@@H](C)[C@@H](NC(=O)[C@H]2NC[C@@H]3C[C@H](CC(C)C)CCO[C@H]32)[C@H]2O[C@H](SC)[C@H](O)[C@@H](O)[C@H]2O)cc1 [FSA-09-05-079, (4S,5aS,8S,8aR)-4-Isobutyl-N-((1S,2S)-2-((4-((methylamino)methyl)phenyl)thio)-1-((2R,3R,4S,5R,6R)-3,4,5-trihydroxy-6-(methylthio)tetrahydro-2H-pyran-2-yl)propyl)octahydro-2H-oxepino[2,3-c]pyrrole-8-carboxamide]	1 (≈ 1.63 µM)	4 (≈ 6.54 µM)	8 (≈ 13.1 µM)	16 (≈ 26.1 µM)	1 (≈ 1.63 µM)	0.5 (≈ 0.817 µM)	16 (≈ 26.1 µM)	1 (≈ 1.63 µM)	0.5 (≈ 0.817 µM)	0.5 (≈ 0.817 µM)	–
CCCC[C@@H]1CCO[C@@H]2[C@H](CN[C@@H]2C(=O)N[C@H]([C@H](C)Cl)[C@H]2OC(SC)[C@H](O)C(O)C2O)C1 (some centres unmarked) [FSA-12-03-029]	4 (≈ 8.08 µM)	8 (≈ 16.2 µM)	8 (≈ 16.2 µM)	16 (≈ 32.3 µM)	4 (≈ 8.08 µM)	0.25 (≈ 0.505 µM)	32 (≈ 64.6 µM)	0.25 (≈ 0.505 µM)	0.06 (≈ 0.121 µM)	0.06 (≈ 0.121 µM)	–
CSC1O[C@H]([C@H](NC(=O)[C@H]2NC[C@@H]3C[C@H](CCCF)CCO[C@H]32)[C@H](C)Cl)C(O)C(O)[C@H]1O (some centres unmarked) [FSA-12-03-035]	4 (≈ 8.02 µM)	4 (≈ 8.02 µM)	8 (≈ 16 µM)	8 (≈ 16 µM)	4 (≈ 8.02 µM)	0.25 (≈ 0.501 µM)	4 (≈ 8.02 µM)	0.125 (≈ 0.25 µM)	0.06 (≈ 0.12 µM)	0.06 (≈ 0.12 µM)	–
CSC1O[C@H]([C@H](NC(=O)[C@H]2NC[C@@H]3C[C@H](CCCCl)CCO[C@H]32)[C@H](C)Cl)C(O)C(O)[C@H]1O (some centres unmarked) [FSA-12-03-042]	0.5 (≈ 0.97 µM)	4 (≈ 7.76 µM)	16 (≈ 31 µM)	8 (≈ 15.5 µM)	2 (≈ 3.88 µM)	0.125 (≈ 0.242 µM)	8 (≈ 15.5 µM)	0.125 (≈ 0.242 µM)	0.06 (≈ 0.116 µM)	0.06 (≈ 0.116 µM)	–
CSC1O[C@H]([C@H](NC(=O)[C@H]2NC[C@@H]3C[C@H](CCC(F)F)CCO[C@H]32)[C@H](C)Cl)C(O)C(O)[C@H]1O (some centres unmarked) [FSA-12-03-055]	1 (≈ 1.93 µM)	8 (≈ 15.5 µM)	16 (≈ 30.9 µM)	16 (≈ 30.9 µM)	4 (≈ 7.74 µM)	0.25 (≈ 0.484 µM)	16 (≈ 30.9 µM)	0.125 (≈ 0.242 µM)	0.06 (≈ 0.116 µM)	0.06 (≈ 0.116 µM)	–
CCC[C@@H]1C[C@@H](C(=O)N[C@@H]([C@H]2O[C@H](SC)[C@H](O)[C@@H](O)[C@H]2O)[C@@H](C)O)N(C)C1 [Lincomycin]	–	–	–	–	–	–	–	–	–	–	MIC (E. coli ΔTolC; E. coli HAV#038, ΔTolC): 128 µg/mL (≈ 315 µM); MIC [1]: 16 µg/mL (≈ 39.4 µM); MIC (E. coli ATCC 25922; E. coli HAV#006, ATCC 25922): > 256 µg/mL; MIC (E. coli LptD; E. coli HAV#040, LptD): 64 µg/mL (≈ 157 µM); MIC (E. faecalis ATCC 29212; [7]): 32 µg/mL (≈ 78.7 µM); MIC (K. oxytoca Clinical; K. oxytoca HAV#450, Clinical): > 256 µg/mL; MIC (S. aureus ATCC 29213; [8]): 0.5 µg/mL (≈ 1.23 µM); MIC [2]: 0.25 µg/mL (≈ 0.615 µM); MIC (S. pneumoniae ATCC 49619; ATCC49619, S. pneumoniae HAV#003, ATCC 49619): 1 µg/mL (≈ 2.46 µM); MIC (S. pyogenes ATCC 19615; ATCC19615, S. pyogenes HAV#004, ATCC 19615): 0.5 µg/mL (≈ 1.23 µM)
CN(C)c1ccc(O)c2c1C[C@H]1C[C@H]3[C@H](N(C)C)C(O)=C(C(N)=O)C(=O)[C@@]3(O)C(O)=C1C2=O [Minocycline]	–	–	–	–	–	–	–	–	–	–	MIC (E. coli ΔTolC; E. coli HAV#038, ΔTolC): ≤ 0.0125 µg/mL; MIC (S. aureus BAA 977 iErmA): 0.25 µg/mL (≈ 0.546 µM); MIC [1]: 0.125 µg/mL (≈ 0.273 µM); MIC (E. coli ATCC 25922; E. coli HAV#006, ATCC 25922): 0.5 µg/mL (≈ 1.09 µM); MIC (E. coli LptD; E. coli HAV#040, LptD): 0.25 µg/mL (≈ 0.546 µM); MIC (E. faecalis ATCC 29212; [7]): 4 µg/mL (≈ 8.74 µM); MIC (S. aureus ATCC 29213; [8]): 0.25 µg/mL (≈ 0.546 µM); MIC [2]: 0.25 µg/mL (≈ 0.546 µM)
